# Test results reported in patent US10570099B2, “Salts of an epidermal growth factor receptor kinase inhibitor” (Celgene CAR LLC, priority 2012, dated 2020).
# Where a name gives a salt, the structure may show the parent alone.
# What was measured:
# [1] = Dog PK Study 2 (gastric pH adjustment, food effect); type: in vivo, beagle dogs; conditions: 30 mg/kg, plasma compound 1, dogs (n = 3), capsule orally 30 mg/kg, mean (% CV); for AUC(0-t): read-out: AUC0-24
# Experimental: Compound 1 free base and compound 2, as the Form I monohydrobromide (HBr) salt, were evaluated in a cross-over dog PK study in which male dogs were pre-treated with either pentagastrin (to decrease gastric pH) or famotidine (to increase gastric pH) prior to oral dosing to control gastric pH. In addition, the effect of food on the systemic exposure to compound 1 was also evaluated in dogs receiving Form I HBr with pentagastrin pre-treatment. Compound 1 free base capsule consisted of compound 1 free base in Vitamin E TPGS and PEG 400 filled into a capsule. The Form I hydrobromide salt capsule consisted of Form I HBr alone filled into a capsule.
# There was a minimum 6-day washout between dosing. On the day of dosing under fed condition, dogs were given 60 gram of a high fat diet (Harlan Teklad 2027C) and allowed to consume all of the food within 15-20 minutes. The animals were given a 10-minute rest period and then the capsule doses were administered. Plasma samples were collected at pre-dose and 0.5, 1, 2, 4, 6, 8, 12 and 24 hours post dose.
# [2] = Dog PK Study 1 (cross-over, fasted); type: in vivo, beagle dogs; conditions: male, beagle, po; for AUC(0-t): read-out: AUC0-24; for Tmax: median
# Experimental: Compound 1 free base and compound 2, as the Form I monohydrobromide (HBr) salt, were evaluated in a cross-over dog PK study. Compound 1 free base capsule consisted of compound 1 free base in Vitamin E TPGS and PEG 400 filled into a capsule. The Form I hydrobromide salt capsule consisted of Form I HBr alone filled into a capsule.
# Compound 1 free base capsule and Form I HBr capsule were dosed orally at 28.5 and 24.5 mg/kg (as active) QD, respectively, to three fasted male non-naïve beagle dogs (body weight range: 10.1-10.8 kg) with a 5-day washout period. Approximately 5 mL of tap water was orally administered to encourage swallowing and ensure delivery of capsules into the stomach. Plasma samples were collected at pre-dose and 0.5, 1, 2, 4, 6, 8, 12 and 24 hours post dose. The plasma concentrations of compound 1 were determined by a liquid chromatography-tandem mass spectrometry (LC/MS/MS) method.
# [3] = Dynamic vapour sorption (DVS); type: physicochemical
# Experimental: For dynamic vapour sorption (DVS), approximately 10-20 mg of sample was placed into a wire mesh vapour sorption balance pan and loaded into a DVS-1 dynamic vapour sorption balance by Surface Measurement Systems. The sample was subjected to a ramping profile from 20-90% relative humidity (RH) at 10% increments, maintaining the sample at each step until a stable weight had been achieved (99.5% step completion). After completion of the sorption cycle, the sample was dried using the same procedure, but all the way down to 0% RH and finally taken back to the starting point of 20% RH. The weight change during the sorption/desorption cycles were plotted, allowing for the hygroscopic nature of the sample to be determined.
# [4] = Thermodynamic solubility in media of various pH (HPLC; XRPD of excess solids); conditions: for Thermodynamic Solubility: ca. 24 hours
# Experimental: The remaining solids were also analysed by XRPD analysis to establish if any changes in the solid form occurred.
# The remaining solids were also analysed by XRPD analysis to establish if any changes in the solid form occurred. For the buffer solutions, KCl/HCl was used for pH 1 and citrate/phosphate combinations for pH 3, 4.5 and 6.6.
# The remaining solids were also analysed by XRPD analysis to establish if any changes in the solid form occurred. For the buffer solutions, KCl/HCl was used for pH 1 and citric acid/sodium citrate combinations for pH 3, 4.5 and 6.2.
# The solids were then removed by filtration and tested by XRPD analysis. The mother liquors were analyzed by HPLC to determine API solubility.
# For the buffer solutions, KCl/HCl was used for pH 1 and citrate/phosphate combinations for pH 3, 4.5 and 6.6 (10 mM). The pH of the solutions was also measured prior to HPLC analysis.
# [5] = 1 week stability study (XRPD and HPLC); type: physicochemical
# Experimental: (§1) Resulting solids were analysed by XRPD and HPLC to establish if any changes had occurred.
# as §1
# The resulting solids were analysed by XRPD and HPLC to establish if any changes had occurred.
# [6] = Shake flask solubility of potential salts in aqueous medium (pH<2); type: physicochemical; conditions: pH<2, ca. 24 hours shaking, HPLC
# Experimental: The solubility of the potential salts was tested using a shake flask method whereby a slurry of each salt was prepared in deionized water and the pH of the reaction was reduced to below pH 2 by adding a small amount of the counterion used for salt formation. The pH was tested using universal indicator paper.
# (§2) (open vials). TGA was carried out after the stability studies for samples containing sufficient material.
# [7] = Solvent solubility screen of amorphous hydrobromide salt; type: physicochemical
# Experimental: Approximately 10 mg of amorphous hydrobromide salt was placed in each of 24 vials and 5 volume aliquots of the appropriate solvent system was added to the vial. Between each addition, the mixture was checked for dissolution. This procedure was continued until dissolution was observed or until 100 volumes of solvent had been added.
# [8] = 1 week stability of primary screen salts at 40° C./75% RH and 80° C. (open vials, XRPD); type: physicochemical
# Experimental: as §2
# [9] = dog, plasma compound 1, fasted dogs (n = 3), capsule orally 24.5 mg/kg, mean (% CV)
# [10] = 25° C., closed container, 7 day
# [11] = 80° C., closed container, 7 day
# [12] = plasma compound 1, fasted dogs, capsule orally 28.5 mg/kg, mean, dog #3 excluded
compound,measurement,setting,value
C=CC(=O)Nc1cccc(Nc2nc(Nc3ccc(N4CCN(C(C)=O)CC4)cc3OC)ncc2C(F)(F)F)c1 [Compound 2 (Form I Hydrobromide)],AUC(0-t),"[1]; male, beagle, dog, plasma, po, Pentagastrin, fed",13.9 µg·h/mL
same,Cmax,"[1]; male, beagle, dog, plasma, po, Pentagastrin, fed, read-out: Cmax",3.97 µg/mL
same,AUC0-24,"[1]; Famotidine, fasted",4010 (54%) ng · h/mL
same,Cmax,"[1]; Famotidine, fasted",1180 (20%) ng/mL
same,AUC0-24,"[1]; Pentagastrin, fasted",9450 (31%) ng · h/mL
same,Cmax,"[1]; Pentagastrin, fasted",2860 (39%) ng/mL
same,half-life,"[2]; dog, plasma compound 1, fasted dogs (n = 3), capsule orally 24.5 mg/kg, mean",2.4 h
same,Cmax,[2]; [9],1.42 µg/mL
same,AUC(0-t),[2]; [9],5.26 µg·h/mL
same,Tmax,"[2]; dog, plasma compound 1, fasted dogs (n = 3), capsule orally 24.5 mg/kg",2 h
Br.C=CC(=O)Nc1cccc(Nc2nc(Nc3ccc(N4CCN(C(C)=O)CC4)cc3OC)ncc2C(F)(F)F)c1 [Form III hydrobromide salt],hygroscopicity (DVS),[3],slightly hygroscopic
same,"Moisture uptake, Cycle 3 Sorption",[3]; 0-20% RH,ca. 0.535%
same,"mass uptake, Cycle 1 Sorption",[3]; 20-90% RH,ca. 1.045%
same,"mass decrease, Cycle 2 Desorption",[3]; 90-0% RH,ca. 1.983%
same,post DVS XRPD analysis (polymorphic form),"[3]; after DVS cycles, listed as Form III",converted to Form I hydrobromide salt
same,pH prior to analysis,[4]; Buffer pH 1,0.95
same,pH prior to analysis,[4]; Buffer pH 3,1.53
same,pH prior to analysis,[4]; Buffer pH 4.5,1.79
same,pH prior to analysis,[4]; Buffer pH 6.6,1.79
same,XRPD of excess solids,"[4]; pH 1.0, KCl/HCl",remained predominantly consistent with the Form III hydrobromide
same,Thermodynamic Solubility,"[4]; pH 1.0, KCl/HCl buffer, listed as Form III",13.88 mg/mL
same,XRPD of excess solids,"[4]; pH 3.0, Citrate/Phosphate",became amorphous
same,XRPD of excess solids,"[4]; pH 4.5, Citrate/Phosphate",converted to a freebase hydrate form
same,Thermodynamic Solubility,"[4]; pH 4.5, Citrate/Phosphate",0.28 mg/mL
same,XRPD of excess solids,"[4]; pH 6.6, Citrate/Phosphate",converted to a freebase hydrate form
same,HPLC purity after storage,[5]; [10],98.9%
same,XRPD after storage,[5]; [10],Form I
same,HPLC purity after storage,"[5]; 25° C., open container, 7 day",98.2%
same,XRPD after storage,"[5]; 25° C., open container, 7 day",Form I
same,HPLC purity after storage,"[5]; 40° C./75% RH, closed (crimped) vial, 1 week",99.0%
same,XRPD after storage,"[5]; 40° C./75% RH, closed (crimped) vial, 1 week, listed as Form III",Form I
same,HPLC purity after storage,"[5]; 40° C./75% RH, open vial, 1 week",98.3%
same,XRPD after storage,"[5]; 40° C./75% RH, open vial, 1 week, listed as Form III",Form I
same,HPLC purity after storage,[5]; [11],99.0%
same,XRPD after storage,[5]; [11],Form I
same,HPLC purity after storage,"[5]; 80° C., open vial, 1 week, listed as Form III",98.7%
"C=CC(=O)Nc1cccc(Nc2nc(Nc3ccc(N4CCN(C(C)=O)CC4)cc3OC)ncc2C(F)(F)F)c1.O=C(O)c1c(O)cc(O)cc1O [2,4,6-Trihydroxybenzoate Form II]",Approximate Solubility,[6],Below LOQ
C=CC(=O)Nc1cccc(Nc2nc(Nc3ccc(N4CCN(C(C)=O)CC4)cc3OC)ncc2C(F)(F)F)c1 [Compound 1 (Free Base)],AUC(0-t),"[1]; male, beagle, dog, plasma, po, Pentagastrin, fasted",7.81 µg·h/mL
same,Cmax,"[1]; male, beagle, dog, plasma, po, Pentagastrin, fasted, read-out: Cmax",1.82 µg/mL
same,AUC0-24,"[1]; Famotidine, fasted",163 (3%) ng · h/mL
same,Cmax,"[1]; Famotidine, fasted",57 (24%) ng/mL
same,Cmax,[2]; [12],0.12 µg/mL
same,half-life,[2]; [12],2.1 h
same,AUC(0-t),[2]; [12],0.278 µg·h/mL
same,Tmax,"[2]; plasma compound 1, fasted dogs, capsule orally 28.5 mg/kg, dog #3 excluded",1 h
Br.C=CC(=O)Nc1cccc(Nc2nc(Nc3ccc(N4CCN(C(C)=O)CC4)cc3OC)ncc2C(F)(F)F)c1 [amorphous hydrobromide salt],Approximate Solubility,"[7]; 1,4-Dioxane",<10 mg/mL
same,Approximate Solubility,[7]; 1-Butanol,<10 mg/mL
same,Approximate Solubility,[7]; 2-Propanol,<10 mg/mL
same,Approximate Solubility,[7]; 3-Methyl-1-butanol,<10 mg/mL
same,Approximate Solubility,[7]; Acetone,<10 mg/mL
same,Approximate Solubility,[7]; Acetone:Water (10%),<10 mg/mL
same,Approximate Solubility,[7]; Acetonitrile,<10 mg/mL
same,Approximate Solubility,[7]; Cyclohexane,<10 mg/mL
same,Approximate Solubility,[7]; Dichloromethane,<10 mg/mL
same,Approximate Solubility,[7]; Diisopropyl ether,<10 mg/mL
same,Approximate Solubility,[7]; Dimethylformamide,ca. 67 mg/mL
same,Approximate Solubility,[7]; Dimethylsulfoxide,ca. 50 mg/mL
same,Approximate Solubility,[7]; Ethanol,<10 mg/mL
same,Approximate Solubility,[7]; Ethyl acetate,<10 mg/mL
same,Approximate Solubility,[7]; Heptane,<10 mg/mL
same,Approximate Solubility,[7]; Isopropyl acetate,<10 mg/mL
same,Approximate Solubility,[7]; Methyl isobutyl ketone,<10 mg/mL
same,Approximate Solubility,[7]; Methylethyl ketone,<10 mg/mL
same,Approximate Solubility,[7]; N-Methyl-2-pyrrolidone,ca. 20 mg/mL
same,Approximate Solubility,[7]; Nitromethane,<10 mg/mL
same,Approximate Solubility,[7]; Tetrahydrofuran,<10 mg/mL
same,Approximate Solubility,[7]; Toluene,<10 mg/mL
same,Approximate Solubility,[7]; Water,<10 mg/mL
same,Approximate Solubility,[7]; tert-Butylmethyl ether,<10 mg/mL
"C=CC(=O)Nc1cccc(Nc2nc(Nc3ccc(N4CCN(C(C)=O)CC4)cc3OC)ncc2C(F)(F)F)c1.O=C(O)c1c(O)cc(O)cc1O [2,4,6-Trihydroxybenzoate Form I]",Approximate Solubility,[6],Below LOQ
same,Stability 40° C./75% RH (open conditions),[8],"No form change,"
same,Stability 80° C. (open conditions),[8],"No form change,"
